In patent US7202261B2, “Calcilytic compounds” (NPS Pharmaceuticals, Inc., priority 1996, dated 2007):
Where a name gives a salt, the structure may show the parent alone.

Target: T1, human calcium receptor (Homo sapiens, UniProt P41180)
T1 construct: expressed in transfected cells
T1 sequence (P41180 20-1078): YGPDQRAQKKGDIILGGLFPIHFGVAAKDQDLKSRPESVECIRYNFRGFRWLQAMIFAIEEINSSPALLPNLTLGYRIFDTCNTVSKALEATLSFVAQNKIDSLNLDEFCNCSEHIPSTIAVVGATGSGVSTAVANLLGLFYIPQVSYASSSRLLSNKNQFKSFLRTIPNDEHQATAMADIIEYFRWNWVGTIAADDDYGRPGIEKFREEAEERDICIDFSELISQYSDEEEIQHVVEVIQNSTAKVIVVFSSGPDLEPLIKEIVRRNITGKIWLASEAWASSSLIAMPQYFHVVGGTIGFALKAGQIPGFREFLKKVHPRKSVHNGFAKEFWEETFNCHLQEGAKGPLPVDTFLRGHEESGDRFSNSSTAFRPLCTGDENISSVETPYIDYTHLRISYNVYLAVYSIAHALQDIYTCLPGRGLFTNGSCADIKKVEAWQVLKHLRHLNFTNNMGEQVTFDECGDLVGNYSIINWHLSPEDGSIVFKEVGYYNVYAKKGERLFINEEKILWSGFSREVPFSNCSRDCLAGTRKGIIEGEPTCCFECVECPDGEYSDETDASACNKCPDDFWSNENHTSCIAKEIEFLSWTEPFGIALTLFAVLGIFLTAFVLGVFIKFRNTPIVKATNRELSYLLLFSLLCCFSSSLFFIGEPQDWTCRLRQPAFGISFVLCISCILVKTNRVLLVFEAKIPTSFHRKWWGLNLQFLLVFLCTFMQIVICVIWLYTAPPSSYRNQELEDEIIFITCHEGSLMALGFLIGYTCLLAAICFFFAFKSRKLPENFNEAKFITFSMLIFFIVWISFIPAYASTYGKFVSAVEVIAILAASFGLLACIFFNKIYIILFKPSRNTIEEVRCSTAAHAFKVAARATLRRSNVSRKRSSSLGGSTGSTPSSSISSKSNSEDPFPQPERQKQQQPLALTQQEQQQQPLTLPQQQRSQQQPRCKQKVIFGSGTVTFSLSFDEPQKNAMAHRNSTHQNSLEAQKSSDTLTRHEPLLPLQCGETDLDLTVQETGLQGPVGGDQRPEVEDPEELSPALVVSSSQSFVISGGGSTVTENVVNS
Assay: Calcium Receptor Inhibitor Assay
Assay type: cell-based
Conditions: HEK 293 4.0–7 cells stably expressing the human calcium receptor; fluo-3; read-out: IC50 for blocking increases of intracellular Ca2+ elicited by extracellular Ca2+
Procedure, shortened: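 Intracellular Ca^2+ measured with fluo-3 at 37° C in stirred cell suspension. Buffer held 1 mM CaCl2 and 1 mg/mL D-glucose. Compound or vehicle added 90 seconds before extracellular Ca^2+ was raised from 1 to 2 mM, and calcilytic activity scored as concentration-dependent block of the intracellular Ca^2+ rise.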

IC50 [µM]	SMILES
< 10	COc1ccc(CC(C)(C)NC[C@@H](O)COc2ccccc2)cc1 (single isomer, unassigned) [Compound 32, (R) or (S)—N-(2-Hydroxy-3-phenoxypropyl)-1,1-dimethyl-2-(4-methoxyphenyl)ethylamine Hydrochloride]
< 1	COc1ccc(CC(C)(C)NCC(O)COc2cccc(OC)c2)cc1 (centres unmarked) [Compound 38, N-[2-Hydroxy-3-(3-methoxyphenoxy)propyl]-1,1-dimethyl-2-(4-methoxyphenyl)ethylamine Hydrochloride]
